Data from patent US5508180A, “Biocatalytic oxidation using soybean peroxidase” (Enzymol International, Inc., priority 1994, dated 1996).

Legend:
Format in all cases: biochemical
[1] = molecular target: T1, soybean peroxidase (Glycine max, UniProt O22443); assay: Oxidation of methyl p-tolyl sulfide to sulfoxide and sulfone by soybean peroxidase; conditions: for Absorbance Units at 308 nm: pH 2 (conversion to sulfone)
T1 construct: secreted heme glycoprotein, reported 37 kDa
Description: Methyl p-tolyl sulfide (MTS), and the enantiomeric oxidation products (R)-(+)-methyl tolyl sulfoxide (MTSO) and (S)-(-)-methyl tolyl sulfoxide, were purchased from Aldrich (Milwaukee, Wis). A stock solution of MTS was prepared by adding 1 g MTS to 750 ml water and heating at 60° C. for 15 min. A warm stock solution was used for all assays to maintain the substrate in solution. […] At pH 2 these peaks shift to 274 and 311 nm, respectively.
Assays with MTS were done with 120 ppu SBP and 1 mM H2 O2.
The effect of pH on the oxidation of MTS was studied to optimize the reaction. Buffers were used at the indicated pH at 25 mM concentration.
The effect of temperature on aromatic sulfide oxidation was investigated at pH 3.5 using MTS. Conditions were 120 ppu SBP, 25 mM Glycine, 2 mM MTS, 1 mM H2 O2.

[2] = molecular target: T1, soybean peroxidase; assay: Demethylation (oxidation) of methoxybenzenes by soybean peroxidase, absorbance of quinone products; conditions: for dA per minute (286 nm) / dA per minute (250 nm) / dA per minute (310 nm) / dA per minute (289 nm): pH 2
Description: (§1) 0.1 ml soybean peroxidase (120 purpurogallin units/ml) stock solution was added to 3 ml veratryl alcohol solution (1 g veratryl alcohol in 750 ml water) and vortexed in a test tube. 20 μl peroxide stock solution was added, mixed and the solution poured into a 1 cm path, 4 ml quartz cuvette. Using a Shimadzu UV-160 double beam recording spectophotometer, the change in absorbance of the sample compared to a reference cuvette containing 3 ml veratryl alcohol solution only was monitored every minute by scanning wavelengths from 500 to 200 nm. The peak wavelength of 308 nm was identified as veratryl aldehyde and was used for further monitoring. The kinetics of the reaction were determined from the linear portion of the increase in absorbance.
Using assay methods described in Example 15, three methoxybenzenes were tested for oxidation by soybean peroxidase (SBP). These compounds were: 1,4-Dimethoxybenzene (DMB), 1,2,3-Trimethoxybenzene (TMB) and 1,3,5-Trimethoxybenzene (TMB). Stock solutions were prepared by heating 1 g (0.5g 1,3,5-TMB) in 750 ml water to 60 deg C on a stirring hot plate, allowing the solution to cool to room temperature and adjusting the pH to 2 with HCl. Assays were performed as described in Example 1. Initially, a scan of wavelengths from 500 to 200 nm every minute was done during each substrate oxidation to find suitable wavelengths to monitor for the corresponding quinone products.
For example, a comparison of the rates of oxidation of 1,4-dimethoxybenzene at pH 2 where the pH was adjusted with HCl in one case and with HNO3 in a second case is shown in Table 11.

[3] = molecular target: T1, soybean peroxidase; assay: Oxygen-mediated hydroxylation of tyrosine by soybean peroxidase with dihydroxyfumaric acid, loss of DHF absorbance
Description: Tyrosine, 0.2 g was added to 150 ml water and HCl was added until the tyrosine dissolved at about pH 3. Dihydroxyfumaric acid (DHF), 0.44 g was added to 100 ml water and dilute (1%) sodium hydroxide was added until the acid dissolved at about pH 3.
Hydroxylation of tyrosine was achieved by mixing 2 ml tyrosine solution, 1 ml 0.1M buffer selected from a range of pH 1-13, 0.1 ml soybean peroxidase at 10 mg/ml and last, adding 0.1 ml DHF stock solution. The reference curvette contained the same mixture of tyrosine, buffer and DHF stock solutions. No hydrogen peroxide was used in these reaction. Dissolved oxygen from air served as the source of oxidant. Peak wavelength corresponding to DHF, determined by DHF absorbance in the solution, was monitored for loss in absorbance, indicating consumption of the reducing agent and hydroxylation of the phenol. Oxidation was followed by monitoring wavelengths from 500 to 200 nm at zero time and 1 minute of reaction. The absorbance difference at the wavelength corresponding to loss of DHF was recorded.

[4] = molecular target: T1, soybean peroxidase; assay: Oxidation of veratryl alcohol to veratryl aldehyde by soybean peroxidase and hydrogen peroxide, absorbance at 308 nm
Description: Preparation of Soybean Peroxidase Solution: Purified soybean peroxidase was lyophilized to give a powder at 120 purpurogallin units (as defined by Sigma) per mg. Purification was done with addition of 5 mM CaCl2, but without buffers or other non-volatile substances which would carry over with the enzyme in the powder. Lyophilization typically yielded 4.5 g from 60 ml. […] Using the extinction coefficient reported for heme in HRP ([…] at 403 nm in 0.1M Tris pH 7), and the reported molecular weight of SBP (37,000), the solid was 60% peroxidase by weight.
Preparation of peroxide stock solution: 1.5 ml of 30% hydrogen peroxide was diluted to 100 ml with water to provide a 0,147M stock solution of hydrogen peroxide.
as §1
To determine the effects of pH on the oxidation of veratryl alcohol, a veratryl alcohol stock solution containing 20 mM CaCl2 was divided into 9 samples and each sample treated with HCl to provide 9 samples ranging in pH from 1.25 to 3.3 ml of solution was withdrawn from each sample and the change in absorbance (dA) of veratryl alcohol in each sample was measured at 308 nm at room temperature.
To determine the effects of temperature on veratryl alcohol oxidation at a pH of 2, 5 samples of a veratryl alcohol stock solution without CaCl2 were obtained and the absorbance of veratryl alcohol was measured at varying temperatures. The samples were incubated in a circulating water bath and cuvette blocks were preheated by connection with the same bath. The test cuvette was left empty in the block to equilibrate prior to assay. Enzyme and peroxide stock solutions were stored at room temperature. Assay was initiated by pouring the alcohol solution into the cuvette, adding 0.1 ml enzyme, inverting, adding 20 ul peroxide, inverting, and immediately starting to record change in absorbance.

T1 sequence (O22443 27-332): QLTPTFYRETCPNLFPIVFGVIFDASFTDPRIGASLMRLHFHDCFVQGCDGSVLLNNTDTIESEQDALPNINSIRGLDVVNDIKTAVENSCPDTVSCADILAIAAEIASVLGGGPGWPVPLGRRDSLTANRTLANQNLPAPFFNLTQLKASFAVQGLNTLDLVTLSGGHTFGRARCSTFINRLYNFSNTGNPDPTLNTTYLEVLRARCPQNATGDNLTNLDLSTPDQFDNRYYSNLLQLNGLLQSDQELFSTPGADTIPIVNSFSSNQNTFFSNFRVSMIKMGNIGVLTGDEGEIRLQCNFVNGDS

## CSc1ccc(C)cc1 [MTS, Methyl p-tolyl sulfide]
[1]
  pH optimum of oxidation of MTS to MTSO: 3.5
[1]; 25 °C, pH 3.5, 120 ppu SBP, 25 mM Glycine, 2 mM MTS, 1 mM H2O2
  dA per min at 279 nm: 0.0607
[1]; 35 °C, pH 3.5, 120 ppu SBP, 25 mM Glycine, 2 mM MTS, 1 mM H2O2
  dA per min at 279 nm: 0.0824
[1]; 45 °C, pH 3.5, 120 ppu SBP, 25 mM Glycine, 2 mM MTS, 1 mM H2O2
  dA per min at 279 nm: 0.1012
[1]; 55 °C, pH 3.5, 120 ppu SBP, 25 mM Glycine, 2 mM MTS, 1 mM H2O2
  dA per min at 279 nm: 0.1735
[1]; 65 °C, pH 3.5, 120 ppu SBP, 25 mM Glycine, 2 mM MTS, 1 mM H2O2
  dA per min at 279 nm: 0.2563
[1]; 75 °C, pH 3.5, 120 ppu SBP, 25 mM Glycine, 2 mM MTS, 1 mM H2O2
  dA per min at 279 nm: 0.1065
[1]; 85 °C, pH 3.5, 120 ppu SBP, 25 mM Glycine, 2 mM MTS, 1 mM H2O2
  dA per min at 279 nm: 0.0908
[1]; pH 1, 25 mM buffer
  dA per min at 279 nm: 0.0348
[1]; pH 2, 25 mM buffer
  dA per min at 279 nm: -0.1376
[1]; pH 3, 25 mM buffer
  dA per min at 279 nm: 0.1042
[1]; pH 3.5, 25 mM buffer
  dA per min at 279 nm: 0.218
[1]; pH 4, 25 mM buffer
  dA per min at 279 nm: 0.0893
[1]; pH 4.5, 25 mM buffer
  dA per min at 279 nm: 0.0017
[1]; time of reaction 0 min
  Absorbance Units at 308 nm: 0.21 Absorbance Units
[1]; time of reaction 1 min
  Absorbance Units at 308 nm: 0.293 Absorbance Units
[1]; time of reaction 2 min
  Absorbance Units at 308 nm: 0.35 Absorbance Units
[1]; time of reaction 3 min
  Absorbance Units at 308 nm: 0.381 Absorbance Units
[1]; time of reaction 4 min
  Absorbance Units at 308 nm: 0.401 Absorbance Units

## COc1cc(OC)cc(OC)c1 [1,3,5-TMB, 1,3,5-Trimethoxybenzene]
[2]; 35 °C
  dA per minute (286 nm): 0.0282
[2]; 45 °C
  dA per minute (286 nm): 0.474
[2]; 55 °C
  dA per minute (286 nm): 0.097
[2]; 65 °C
  dA per minute (286 nm): 0.1724
[2]; 75 °C
  dA per minute (286 nm): 0.0262

## COc1ccc(OC)cc1 [1,4-DMB, 1,4-Dimethoxybenzene]
[2]; 25 °C
  dA per minute (250 nm): 1.0134
  dA per minute (310 nm): 0.3566
[2]; 35 °C
  dA per minute (250 nm): 1.1306
  dA per minute (310 nm): 0.3942
[2]; 45 °C
  dA per minute (250 nm): 1.817
  dA per minute (310 nm): 0.745
[2]; 55 °C
  dA per minute (250 nm): 2.73
  dA per minute (310 nm): 1.088
[2]; 65 °C
  dA per minute (250 nm): 2.99
  dA per minute (310 nm): 0.437
[2]; 75 °C
  dA per minute (250 nm): 0.883
  dA per minute (310 nm): 0.129
[2]; 85 °C
  dA per minute (250 nm): 0.0619
  dA per minute (310 nm): 0.0237
[2]; 95 °C
  dA per minute (250 nm): 0.0777
  dA per minute (310 nm): 0.0296
[2]; pH 2 adjusted with HCl
  dA 250 nm per min: 1.275
  dA 310 nm per min: 0.3273
[2]; pH 2 adjusted with HNO3
  dA 250 nm per min: 0.7202
  dA 310 nm per min: 0.2934

## N[C@@H](Cc1ccc(O)cc1)C(=O)O [tyrosine, Tyrosine]
[3]; pH 1, λ 310 nm, loss of DHF absorbance
  dA per min: 0
[3]; pH 2, λ 315 nm, loss of DHF absorbance
  dA per min: 0.012
[3]; pH 3, λ 321 nm, loss of DHF absorbance
  dA per min: 0.726
[3]; pH 3.5, λ 318 nm, loss of DHF absorbance
  dA per min: 0.886
[3]; pH 4, λ 319 nm, loss of DHF absorbance
  dA per min: 0.065
[3]; pH 4.5, λ 320 nm, loss of DHF absorbance
  dA per min: 0.391
[3]; pH 5, λ 303 nm, loss of DHF absorbance
  dA per min: 1.897
[3]; pH 5.5, λ 302 nm, loss of DHF absorbance
  dA per min: 0.971
[3]; pH 6, λ 302 nm, loss of DHF absorbance
  dA per min: 2.226
[3]; pH 6.5, λ 302 nm, loss of DHF absorbance
  dA per min: 2.134
[3]; pH 7, interference from Tris buffer
  dA per min: 0
[3]; pH 7.5, interference from Tris buffer
  dA per min: 0
[3]; pH 8, interference from Tris buffer
  dA per min: 0
[3]; pH 8.5, λ 305 nm, loss of DHF absorbance
  dA per min: 1.098
[3]; pH 9, λ 304 nm, loss of DHF absorbance
  dA per min: 1.705
[3]; pH 9.5, λ 302 nm, loss of DHF absorbance
  dA per min: 1.66
[3]; pH 10, λ 302 nm, loss of DHF absorbance
  dA per min: 0.768
[3]; pH 10.5, λ 302 nm, loss of DHF absorbance
  dA per min: 1.372
[3]; pH 11, λ 302 nm, loss of DHF absorbance
  dA per min: 1.988
[3]; pH 11.5, λ 305 nm, loss of DHF absorbance
  dA per min: 0.075
[3]; pH 12, λ 305 nm, loss of DHF absorbance
  dA per min: 0.069
[3]; pH 13, λ 305 nm, loss of DHF absorbance
  dA per min: 0

## COc1cccc(OC)c1OC [1,2,3-TMB, 1,2,3-Trimethoxybenzene]
[2]; 25 °C
  dA per minute (289 nm): 0.0147
[2]; 35 °C
  dA per minute (289 nm): 0.0272
[2]; 45 °C
  dA per minute (289 nm): 0.0893
[2]; 55 °C
  dA per minute (289 nm): 1.1161
[2]; 65 °C
  dA per minute (289 nm): 0.0301
[2]; 75 °C
  dA per minute (289 nm): 0.0142

## COc1ccc(CO)cc1OC [veratryl alcohol, 3,4-dimethoxybenzyl alcohol]
[4]; 0.1M KCl/HCl buffer at pH 2
  activity (dA per minute at 308 nm): 0.2265
[4]; 25 °C, pH 2, without CaCl2
  dA per minute at 308 nm: 1.427
[4]; 35 °C, pH 2, without CaCl2
  dA per minute at 308 nm: 2.358
[4]; 45 °C, pH 2, without CaCl2
  dA per minute at 308 nm: 3.17
[4]; 55 °C, pH 2, without CaCl2
  dA per minute at 308 nm: 0.3467
[4]; 65 °C, pH 2, without CaCl2
  dA per minute at 308 nm: 0.0018
[4]; pH 1.25, 20 mM CaCl2, room temperature
  dA per minute at 308 nm: 0.0045
[4]; pH 1.35, 20 mM CaCl2, room temperature
  dA per minute at 308 nm: 0.0361
[4]; pH 1.65, 20 mM CaCl2, room temperature
  dA per minute at 308 nm: 0.2358
[4]; pH 1.85, 20 mM CaCl2, room temperature
  dA per minute at 308 nm: 1.611
[4]; pH 2.15, 20 mM CaCl2, room temperature
  dA per minute at 308 nm: 0.945
[4]; pH 2.35, 20 mM CaCl2, room temperature
  dA per minute at 308 nm: 0.2243
[4]; pH 2.55, 20 mM CaCl2, room temperature
  dA per minute at 308 nm: 0.1093
[4]; pH 2.85, 20 mM CaCl2, room temperature
  dA per minute at 308 nm: 0.0587
[4]; pH 3, 20 mM CaCl2, room temperature
  dA per minute at 308 nm: 0.0119
[4]; veratryl alcohol oxidation
  pH optimum: around 2
